Reference: patent US12109253B2, “Use of IGFBP7 for treating malaria” (AGENCY FOR SCIENCE, TECHNOLOGY AND RESEARCH, priority 2019, dated 2024)
Where “and” joins values, the source holds several entries; their conditions need not be identical. Equal entries are not always repeated.

How the values were obtained:
[1] = test system: cytoadhesive properties of infected erythrocytes; details: adjunct treatment candidate, phase II clinical trial; cited from earlier work
P. falciparum = experiment: Rosetting assay (percentage of IRBC that form rosettes), P. falciparum; assay type: cell-based, Plasmodium falciparum; details: for effect on rosetting rates of TSP-1 and VWF without IGFBP7: Albumax-supplemented medium, TSP-1 and VWF present together
Description: (§1) Rosetting assay was conducted when 70% of the parasite population reached late stages (late trophozoites and schizonts) unless stated otherwise. The parasite culture suspension was stained subvitally with Giemsa (5% stain working concentration) for 20 minutes. Subsequently, 7.6 μl stained suspension was pipetted onto a clean glass slide, immediately covered with a 22×32 mm glass cover slip. The wet mount was examined with light microscope using 1000× magnification. Rosetting rate (percentage of rosetting IRBCs) was defined as the percentage of IRBC (over 200 recruited IRBC) that form rosettes. Experiments were conducted in blinded manner.
(§2) Following data review, coupled with critical information (i.e. the protein's subcellular location and cellular functions) from UNIPROT, candidates were shortlisted for further validation. The parasite culture suspensions were incubated with CSMT and antibodies against the shortlisted proteins (see Table 6, items 35, 37, 39-41) and tested in rosetting assay at a final concentration of 25 μg/ml.
(§3) The parasite culture suspension was divided into three groups, one served as control, the second group was added with recombinant human IGFBP7 (final concentration 100 ng/ml), and the third group was mixed with CSMT (CSMT:parasite culture=1:3). After one hour of incubation under in vitro cultivation conditions, rosetting assay was conducted. Separately, a portion of the IGFBP7 suspension was heat-denatured at 95° C. for one hour, prior to use in rosetting assay.
(§4) Parasite cultures were incubated with IGFBP7 (working concentrations 0-25,000 ng/ml) prior to rosetting assay. Time course experiments were performed with laboratory-adapted P. falciparum lines (3D7, MKK183, FVT402, FVT201, WPP3065) incubated with IGFBP7 (100 ng/ml). Rosetting assay was conducted after five minutes, using 7 μl of the suspension. The remaining suspension was kept back into the incubator. Rosetting assay was repeated at five minute-intervals until one hour-post-IGFBP7 exposure. Reversibility of IGFBP7-mediated rosette-stimulation was also tested. Parasite lines (3D7, MKK183, FVT402, FVT201, WPP3065) were incubated with IGFBP7 (100 ng/ml) and rosetting assay was conducted with 7 μl of the suspension. The remaining suspension was centrifuged at 1500 g for five minutes. Supernatant was removed, and the pellet was washed thrice with culture medium, followed by re-suspension with culture medium. Five minutes later, 7 μl of the suspension was taken for rosetting assay, subsequently repeated at five minute-intervals up to one-hour post-IGFBP7 removal.
(§5) Magnetic activated cell sorter (MACS)-sorted late stage-IRBC (purity 95%) were trypsinized at different working concentrations. The first group was mixed with enzyme trypsin (final trypsin concentration of 10 μg/ml), and the second was mixed with enzyme trypsin (final trypsin concentration of 1 mg/ml). The third served as untreated control. The cells were incubated at 37° C. for 30 minutes. After that, the cells were washed with serum-enriched medium for three times. Each group was incubated with or without IGFBP7 (100 ng/ml) prior to rosetting assay. P. falciparum line CS2 deficient of SBP1 [(SBP1-KO-CS2), which lacks P. falciparum erythrocyte membrane protein 1 (PFEMP1) on its IRBC surface] and its wild type (CS2-WT) counterpart were cultured as described. Their rosetting rates post-incubation with IGFBP7 at different concentrations were determined. P. falciparum clones NF54 VAR2CSA_WT and NF54_T934D (cannot express PfEMP1 variant VAR2CSA on IRBC surface^32) were cultivated. Experiments were conducted when parasite population reached late stages. For each parasite line, two conditions were applied; one was incubated with IGFBP7 (100 ng/ml) whereas the other one acted as IGFBP7-free control. Rosetting assay was conducted afterwards. Five replicates were conducted for each experiment setting. […]

hCMEC/D3 = experiment: IRBC-endothelial cytoadhesion to hCMEC/D3; assay type: cell-based, Plasmodium falciparum
Text: Following this we investigated the relationship between IGFBP7, rosetting and IRBC-endothelial cytoadhesion. As expected, IGFBP7 stimulated rosetting of the recruited laboratory-adapted P. falciparum. […] How about the already endothelial-cytoadhered IRBCs? […] Clearly, presence of IGFBP7 interfered with the dynamics between IRBC-endothelial cytoadhesion and IRBC-rosetting.
Is the IGFBP7-induced reversal of IRBC-endothelial cytoadhesion mediated via the IGFBP7-stimulated rosetting? Or are the two events occurring concomitantly? […] The two events are likely to happen in parallel instead of being a cause-effect relationship.

THP-1 [2] = experiment: IRBC phagocytosis by THP-1; assay type: cell-based, human
peripheral monocytes = experiment: IRBC phagocytosis by CD14+ peripheral monocytes; assay type: cell-based, human; details: IGFBP7 100 ng/ml, Pf line NHP1106, biological replicates
P. vivax = experiment: Rosetting assay (percentage of IRBC that form rosettes), P. vivax; assay type: cell-based, Plasmodium vivax
Description: as §1, §2, §3, §4, §5

[3] = test system: Plasmodium berghei ANKA line expressing luciferase (PbAluc); experiment: Experimental cerebral malaria (ECM) in PbAluc infected C57BL/6 mice; assay type: in vivo
Description: Here, we set out to determine the effect of IGFBP7 administration on mice. In particular, we set out to determine the dose and protection from ECM death of mouse IGFBP7 administered i.v. on days 5-12 post-infection (dpi) to Plasmodium berghei ANKA line expressing luciferase (PbAluc) infected C57BL/6 mice.
IGFBP7 was suspended in 1×PBS (concentrations: 0, 50, 100, 200, 1000, and 5000 ng/ml). A separate aliquot of IGFBP7 (5000 ng/ml) was prepared and boiled for one hour, to be used as control.
For each protein concentration group, I.V. administration of 100 μl per mouse was done.
Mice were infected with PbAluc. Prior to infection, an aliquot of serum was collected for each mouse using blood collected through orbital bleeding. Sera were also collected on days 3 and 6 post-infection (dpi) for further testing in future.
I.V. administration was done on daily basis from 5-12 dpi. The n number for each concentration group was 8 except group 5 ng/mouse (n=7) and group 500 ng/mouse (n=5).
The mice were monitored daily, and their signs and symptoms were observed. Dead mice were removed.
Survival of mice within the experimental cerebral malaria (ECM) period (6-12 dpi) across the experimental groups was recorded.
Mice that survived the ECM period were monitored until their death by malaria-induced anemia.

THP-1 [4] = experiment: Zymosan A phagocytosis by THP-1 (control experiment); assay type: cell-based, human; details: IGFBP7 100 ng/ml one hour, then Zymosan A 10 μg/ml one hour
Description: THP-1 is cultivated and expanded into three batches. For each batch of culture, 1×10^6 cells were incubated with IGFBP7 (working concentration 100 ng/ml) for one hour at in vitro cultivation conditions. Another set of cells acted as IGFBP7-free control. Subsequently, Zymosan A (working concentration 10 μg/ml) was added to both sets of cells and incubated for another one hour at in vitro cultivation conditions. Supravital staining with Giemsa was done for 15 minutes following this. Using wet mount technique, the percentage of THP-1 cells which has engulfed Zymosan A was determined as phagocytosis rate by recruiting 1,000 THP-1 cells. The experiment was repeated with the other two batches of THP-1 culture. And all the steps were repeated for another two times using THP-1 cultures thawed at different time points. P. falciparum lines (3D7, MKK183, FVT402, FVT201, CS2_WT) were incubated with or without IGFBP7 in serum-enriched medium prior to rosetting assay. Subsequently, THP-1 were added. Using wet mount technique, the IRBC phagocytosis rates were determined following the same formula to determine phagocytosis rate in the Zymosan A experiment. […]

[5] = Albumax-supplemented medium with IGFBP7 100 ng/ml and TSP-1 10 ng/ml

Substance: Curdlan sulfate
- effect on pathology of patients [1]: reduce the severe pathology development

Substance: TSP-1: rhTSP-1 (thrombospondin-1), serum co-factor of IGFBP7-mediated rosetting
- effect on rosetting rates of TSP-1 and VWF without IGFBP7 (P. falciparum): could not increase the rosetting rates
- TSP-1 concentration enough to optimally facilitate IGFBP7-mediated rosette-stimulation (P. falciparum; serum-free (Albumax-supplemented medium), IGFBP7 100 ng/ml, with VWF): 10 ng/mL

Substance: VWF: Recombinant human VWF (rhVWF), serum co-factor of IGFBP7-mediated rosetting
- VWF concentration at which optimal increment attained (P. falciparum; [5]): 0.5 IU/ml
- VWF concentration sufficient to significantly increase rosetting rates (P. falciparum; [5]): 0.125 IU/ml
- effect on rosetting rates of TSP-1 and VWF without IGFBP7 (P. falciparum): could not increase the rosetting rates
- effect of VWF by itself on rosetting (P. falciparum; VWF 1 IU/ml, no IGFBP7, 20% and 2% serum medium): did not stimulate rosetting

Substance: insulin-like growth factor binding protein 7 [IGFBP7]
- cytoadhesion of already hCMEC/D3-cytoadhering IRBCs (hCMEC/D3; incubation of cytoadhering IRBCs with IGFBP7): reduced IRBC-endothelial cytoadhesion
- IRBC-endothelial cytoadhesion of IGFBP7-primed packed cells (hCMEC/D3; rosette-stimulated cells then co-incubated with hCMEC/D3, vs non-IGFBP7-primed): lower rate of IRBC-endothelial cytoadhesion
- phagocytosis rates (THP-1 [2]; THP-1, IGFBP7 100 ng/ml, Pf line NHP1106, biological replicates): 10.0% (2×) and 5.0% and 11.0% and 8.0%
- IRBC phagocytosis compared with non-IGFBP7-exposed counterparts (THP-1 [2]; five different P. falciparum lines, IGFBP7-incubated prior to THP-1 exposure): significantly less phagocytosed
- phagocytosis rates (peripheral monocytes): 6.0% and 10.0% and 9.0% and 11.0% and 4.0%
- effect on rosetting rates with VWF in Albumax medium (P. falciparum; 0.25% Albumax II medium, IGFBP7 100 ng/ml, VWF 0-2.0 IU/ml, no TSP-1): did not significantly increase rosetting rates
- IGFBP7-induced rosetting in filtered serum (P. falciparum; 20% human serum filtered with 0.45 μm filter, IGFBP7 100 ng/ml): abolished
- rosette-stimulating capacity after heat denaturation (P. falciparum; 95° C. for one hour, Pf n=5): abolished
- effect on rosetting rate (P. falciparum; CS2 wild-type parasite): increased
- effect on rosetting of trypsin-treated IRBC (P. falciparum; IRBC treated with 10 μg/ml or 1 mg/ml trypsin, IGFBP7 100 ng/ml, Pf n=5): did not significantly alter rosetting
- rosetting rates (P. falciparum; NF54 T934D (no VAR2CSA on IRBC surface), IGFBP7 100 ng/ml, one hour, biological replicates): 0.5% (2×) and 1.5% (2×) and 1.0%
- rosetting rates (P. falciparum; NF54 VAR2CSA_WT, IGFBP7 100 ng/ml, one hour, biological replicates): 5.0% and 7.0% and 4.5% and 4.0% and 6.5%
- rosetting rates (P. falciparum; Pf co-incubated with THP-1, IGFBP7 100 ng/ml, biological replicates): 11.0% and 13.0% and 16.0% and 9.0% and 10.0%
- rosetting rates (P. falciparum; Pf co-incubated with monocytes, IGFBP7 100 ng/ml, biological replicates): 14.0% and 18.0% and 15.0% and 17.0% and 10.0%
- concentration at which significant rosette-stimulation noted (P. falciparum; Pf n=7, one hour incubation, 0-25,000 ng/ml tested): 50 ng/mL
- concentration from which significant rosette-stimulation was noted (P. falciparum; PfCS2-WT): 100 ng/mL
- effect on rosetting rate (P. falciparum; SBP1-KO-CS2 (no PfEMP1 on IRBC surface)): no effect
- effect on rosetting with URBC of different ABO blood groups (P. falciparum; URBC groups A, B, O, AB, rhIGFBP7 100 ng/ml, Pf n=7): significantly increase rosetting rates regardless of the blood groups
- rosetting with heparinase-treated URBC (P. falciparum; URBC treated with heparinase I or III 25 μg/ml, purified Pf IRBC): did not induce rosetting
- rosetting rates of IRBCs detached from hCMEC/D3 (P. falciparum; after co-incubation with URBCs and IGFBP7, all parasite lines recruited): 5-25%
- rosette formation prior to THP-1 exposure (P. falciparum; five different P. falciparum lines, IGFBP7-incubated): formed more rosettes
- minimum time to significantly stimulate rosetting (P. falciparum; lab-adapted Pf n=5, IGFBP7 100 ng/ml): ≥ 15 min
- time after protein removal at which rosetting rates revert to baseline (P. falciparum; lab-adapted Pf n=5, after IGFBP7 100 ng/ml exposure and washing): 15 min
- rosetting rates (P. falciparum; late ring stages (hour 16-26) of NHP1106, IGFBP7 100 ng/ml, replicates flask/cycle): 8.5% and 7.0% (2×) and 8.0% (2×) and 6.0% (3×) and 5.0%
- concentration at which rosette stimulation reaches a plateau (P. falciparum; leukocyte-free parasite culture, P. falciparum isolates): 100 ng/mL
- effect on rosetting rates in 2% serum (P. falciparum; medium with only 2% serum, IGFBP7 100 ng/ml, no VWF added): could not increase rosetting rates
- rosette-stimulating capacity after heat denaturation (P. vivax; 95° C. for one hour, Pv n=4): abolished
- effect on rosetting of trypsin-treated IRBC (P. vivax; IRBC treated with 10 μg/ml or 1 mg/ml trypsin, IGFBP7 100 ng/ml, Pv n=4): did not significantly alter rosetting
- concentration at which significant rosette-stimulation noted (P. vivax; Pv n=7, one hour incubation, 0-25,000 ng/ml tested): 50 ng/mL
- effect on rosetting with URBC of different ABO blood groups (P. vivax; URBC groups A, B, O, AB, rhIGFBP7 100 ng/ml, Pv n=7): significantly increase rosetting rates regardless of the blood groups
- rosetting with heparinase-treated URBC (P. vivax; URBC treated with heparinase I or III 25 μg/ml, purified Pv IRBC): did not induce rosetting
- concentration at which rosette stimulation reaches a plateau (P. vivax; leukocyte-free parasite culture, P. vivax isolates): 100 ng/mL
- ECM death compared with control group ([3]; 10, 20, 100, and 500 ng/mouse i.v. daily 5-12 dpi, vs denatured IGFBP7): significantly lower ECM death
- survival rate compared with control ([3]; 10, 20, 100 and 500 ng/mouse i.v. daily 5-12 dpi, vs denatured 500 ng/mouse IGFBP7, till 25 dpi): significant difference in survival rate
- signs of cerebral malaria ([3]; groups 10, 20, 100 and 500 ng/mouse, after 8 dpi): reversal of CM signs
- dose adequate to confer protection from cerebral malaria ([3]; i.v. daily 5-12 dpi): 10 ng/mouse
- effect on phagocytosis ability of THP-1 (THP-1 [4]): increased
